According to the NIST ThermoML archive (doi:10.1021/je400065j):
± gives the expanded uncertainty stated by the source.

Assays:
[1] = Liquid, Closed cell (Static) method
[2] = refractive index (Na D-line) (dimensionless); settings: 293.15 K; 101.33 kPa; Liquid; Standard Abbe refractometry

Row | Structure (SMILES) | vapor or sublimation pressure ([1]; 383.3 K) [kPa] | vapor or sublimation pressure ([1]; 398.1 K) [kPa] | vapor or sublimation pressure ([1]; 398.2 K) [kPa] | vapor or sublimation pressure ([1]; 413.2 K) [kPa] | refractive index [2]
1 | CCC(C)=O [butanone] | 245.6 ± 1.3 | 358.5 ± 1.5 | 358.5 ± 1.5 | 506.6 ± 1.9 | 1.3788 ± 0.0007
2 | CO [methanol] | 480.7 ± 2.3 | 733.7 ± 3.1 | – | 1086 ± 4.1 | 1.3287 ± 0.0007
3 | CCO [ethanol] | 315.6 ± 1.7 | – | 498.3 ± 2.2 | 757 ± 3 | 1.3618 ± 0.0007
